From patent US20130071328A1, “Propynoic Acid Carbamoyl Methyl-Amides and Pharmaceutical Compositions and Methods Based Thereon” (UNIVERSITY OF SOUTHERN CALIFORNIA, priority 2011, published 2013)

How the values were obtained:
[1] = tested on: HT29 colon cancer cell line; test: MTT cytotoxicity assay, HT29; type: cell-based; details: Homo sapiens, HT-29, 72 h exposure
From the text: (§1) The human breast cancer cell line MDA-MB-435 and the colon cancer cell line HT29 were purchased from the American Type Cell Culture (Manassas, Va.). Colon cancer cell lines HCT116 p53^+/+ and HCT116 p53^−/− were kindly provided by Dr. Bert Vogelstein (Johns Hopkins Medical Institutions, Baltimore, Md.). The human ovarian carcinoma cell line (HEY), naturally resistant to cisplatin (CDDP), was kindly provided by Dr. Louis Dubeau (USC Norris Cancer Center). The bladder cancer cell lines were kindly provided by Dr. Richard Cote (USC Keck School of Medicine). Cells were maintained as monolayer cultures in the appropriate media: RPMI-1640 (HT29, HCT116 p53^+/+, HCT116 p53^−/−, and HEY cell lines) or DMEM (MDA-MB-435 and UMUC3 cell lines) supplemented with 10% fetal bovine serum (FBS) (HyClone, Road Logan, Utah) at 37° C. in a humidified atmosphere of 5% CO2. To remove the adherent cells from the flask for subculture and counting, cells were washed with PBS without calcium or magnesium, incubated with a small volume of 1×trypsin-EDTA solution (Sigma-Aldrich, St. Louis, Mo.) for 5 min, resuspended with fresh culture medium, and centrifuged at 1200 rpm for 5 min. All experiments were performed using cells in exponential growth phase. Cells were routinely checked for Mycoplasma contamination using PlasmaTest kit (InvivoGen, San Diego, Calif.).
(§2) Cytotoxicity was assessed by MTT assay as described previously. 43 In brief, cells were seeded in 96-well microtiter plates and allowed to attach overnight. Cells were subsequently treated with continuous exposure to corresponding drugs for 72 h. At the end of treatments, an MTT solution (at a final concentration of 0.5 mg/mL) was added to each well, and cells were incubated for 4 h at 37° C. After removal of the supernatant, DMSO was added, and the absorbance was read at 570 nm. All assays were done in triplicate. The IC50 was then determined for each drug from a plot of log(drug concentration) versus percentage of cells killed.

[2] = tested on: HEY ovarian cancer cell line; test: Cytotoxicity assay, HEY; type: cell-based; details: Homo sapiens
From the text: as §1, §2

[3] = tested on: 5637 bladder cancer cell line; test: MTT cytotoxicity assay, 5637; type: cell-based, human; details: Homo sapiens, 72 h exposure
From the text: as §1, §2

[4] = tested on: HCT116 p53^−/− colon cancer cell line; test: MTT cytotoxicity assay, HCT116 p53-/-; type: cell-based; details: Homo sapiens, HCT-116, 72 h exposure
From the text: as §1, §2

[5] = tested on: MDA-MB-435 breast cancer cell line; test: MTT cytotoxicity assay, MDA-MB-435; type: cell-based, human; details: for IC50: 72 h exposure
From the text: as §1, §2

[6] = tested on: UMUC3 bladder cancer cell line; test: MTT cytotoxicity assay, UMUC3; type: cell-based; details: Homo sapiens, 72 h exposure
From the text: as §1, §2

[7] = Pharmacokinetics study after i.p. administration; type: in vivo, mice; details: mouse, ip
Experimental: To assess the efficacy, tolerability, and pharmacokinetics of these novel compounds following i.p. administration, the pharmacokinetic profile of compounds 4 and 9 was evaluated (Table 3). Mice were treated with compounds 4 and 9 via i.p. injection and serial blood sampling was determined at indicated times after administration. The plasma concentration was determined using a validated liquid chromatography mass spectrometry (LC-MS) method where the lowest level of quantification was 1 ng/mL. One hour following i.p. administration of compounds 4 and 9, their concentrations in the blood were 344 and 6.2 ng/mL, respectively. […] The half-lives of compounds 4 and 9 via i.p. administration were determined to be approximately 3.5 and 9.3 hours, respectively, when a non-compartmental pharmacokinetics analysis was used. The favorable pharmacokinetics profile of compounds 4 and 9 is consistent with the ADMET predictions described previously.
Preliminary pharmacokinetics of compounds 4 and 9 were performed using 18 mice, each time point consisting of two mice. Mice were stratified to various doses given as an i.p. injection of compounds 4 and 9 (24 mg/kg). At the specified time points following drug administration, blood was collected with heparinized syringes. The samples were allowed to settle in 500 μL eppendorf vials and then centrifuged at 1500 rpm for 10 min. The plasma was removed, transferred into new eppendorf tube, and frozen at −80° C. until analysis.

[8] = tested on: doxorubicin-resistant NCI/ADR-RES ovarian cancer cell line; test: Cytotoxicity assay, NCI/ADR-RES; type: cell-based; details: Homo sapiens
Experimental: as §2

[9] = tested on: HCT116 p53^+/+ colon cancer cell line; test: MTT cytotoxicity assay, HCT116 p53+/+; type: cell-based; details: Homo sapiens, HCT-116, 72 h exposure
From the text: as §1, §2

[10] = tested on: OVCAR3 ovarian cancer cell line; test: In vitro cytotoxicity, OVCAR3; type: cell-based; details: Homo sapiens, OVCAR-3; Table 4, ovarian cancer panel
Experimental: as §2

[11] = tested on: OVCAR8 ovarian cancer cell line; test: In vitro cytotoxicity, OVCAR8; type: cell-based; details: Homo sapiens, OVCAR-8; Table 4, ovarian cancer panel
Experimental: as §2

MDA-MB-435 cells = test: Mitochondrial superoxide production (MitoSOX Red); type: cell-based, human
Experimental: After drug treatments, a solution of 5 μM MitoSOX Red mitochondrial superoxide indicator (Invitrogen, Carlsbad, Calif.) was added, and cells were incubated for 10 min at 37° C. Cells were then washed three times with Hank's balanced salt solution (HBSS) to remove excess MitoSOX. After washing, cells were either observed under the fluorescence microscope or collected by trypsinization, washed twice with HBSS, and measured for superoxide production using a BD LSRII flow cytometer (BD Biosciences, San Jose, Calif., USA). Data were analyzed with the BD FACSDiva software package (BD Biosciences, San Jose, Calif., USA).

Row | Structure (SMILES) | IC50 [10] [nM] | IC50 [11] [nM] | IC50 ([8]; Table 4, ovarian cancer panel) [nM] | also measured
1 | C#CC(=O)N(c1ccc(-n2cnnn2)c(C)c1)C(C(=O)NC1CCCC1)c1ccccc1 (stereo not drawn) [Compound 9, N-[2-(Cyclopentylamino)-2-oxo-1-phenylethyl]-N-[3-methyl-4-(1Htetraazol-1-yl)phenyl]Propynamide] |  |  |  | IC50 [1]: 1500 ± 1100 nM; IC50 ([2]; MTT, 72 h exposure (Table 2)): 1900 ± 300 nM; IC50 [3]: 400 ± 100 nM; IC50 [4]: 5700 ± 900 nM; cytotoxic potency in MDA-MB-435 cells [5]: most potent analogue; IC50 [5]: 600 ± 300 nM; IC50 ([5]; Homo sapiens, MDA-MB-435, 72 h): 600 to 6300 nM; IC50 [6]: 7800 ± 1800 nM; AUC ([7]; in vivo, 24 mg/kg): 124.9 ng·h/mL; Cmax ([7]; in vivo, 24 mg/kg): 6.2 ng/mL; Tmax ([7]; in vivo, 24 mg/kg): 5 h; half-life ([7]; in vivo, 24 mg/kg): ~9.3 h; t1/2 ([7]; in vivo, 24 mg/kg): 9.3 h; concentration at 1 h ([7]; plasma, mice, 24 mg/kg i.p., 1 hour, read-out: concentration in the blood one hour following i.p. administration): 6.2 ng/mL; IC50 ([8]; MTT, 72 h exposure (Table 2)): 1000 ± 700 nM; IC50 [9]: 7200 ± 200 nM
2 | C#CC(=O)NCCC(=O)N(c1ccc(OC)cc1OC)C(C(=O)NC1CCCC1)c1cccs1 (stereo not drawn) [Compound 37] | 2300 | 1500 | 9000 | 
3 | CC(=O)O[C@H]1C(=O)[C@@]2(C)[C@H]([C@H](OC(=O)c3ccccc3)[C@]3(O)C[C@H](OC(=O)[C@H](O)[C@@H](NC(=O)c4ccccc4)c4ccccc4)C(C)=C1C3(C)C)[C@]1(OC(C)=O)CO[C@@H]1C[C@@H]2O [paclitaxel, reference compound] |  |  |  | mitochondrial superoxide, fluorescence microscopy (MDA-MB-435 cells; 1.5 μM): only induced a minor amount of mitochondrial superoxide
4 | C#CC(=O)N(c1ccccc1)C(C(=O)NC1CCCCC1)c1cccs1 (stereo not drawn) [Compound 18, N[2-(Cyclohexylamino)-2-oxo-1-thien-2-ylethyl]-N-phenyl Propynamide] |  |  |  | IC50 [1]: > 10000 nM; intensity of MitoSOX staining, fluorescence microscopy (MDA-MB-435 cells; 24 hours): remarkably enhanced the intensity of MitoSOX staining; mitochondrial superoxide production, flow cytometry (MDA-MB-435 cells; IC50 or 3×IC50, 24 hours): induce significant amounts of superoxide; IC50 ([2]; MTT, 72 h exposure (Table 2)): > 10000 nM; IC50 [3]: 3500 ± 1400 nM; IC50 [4]: > 20000 nM; IC50 ([5]; Homo sapiens, MDA-MB-435, 72 h): > 10000 nM; IC50 [6]: > 20000 nM; IC50 ([8]; MTT, 72 h exposure (Table 2)): 1300 ± 400 nM; IC50 [9]: 14000 nM
5 | C#CC(=O)N(CC(=O)NC1CCCC1)c1ccc(-n2cnnn2)c(C)c1 [Compound 30] | 3000 | 10000 | 1800 | 
6 | C#CC(=O)N(c1ccc(-n2cnnn2)c(C)c1)C(C(=O)NC1CCCC1)c1ccc(F)cc1 (stereo not drawn) [Compound 21] | 3100 | 2200 | 520 | IC50 ([2]; Table 4, ovarian cancer panel): 310 nM
7 | C#CC(=O)N(c1ccc(-n2cnnn2)c(C)c1)C(C(=O)NC1CCCC1)c1c(F)c(F)c(F)c(F)c1F (stereo not drawn) [Compound 24] | 600 | 5000 | 450 | 
8 | C#CC(=O)N(c1ccc(OC)cc1OC)C(C(=O)NCC(=O)O)c1cccs1 (stereo not drawn) [Compound 39] | > 10000 | 6000 | 8000 | 
9 | C#CC(=O)N(c1cccc(O)c1)C(C(=O)NC1CCCC1)c1cccs1 (stereo not drawn) [Compound 26] | 1500 | 2200 | 320 | 
10 | C#CC(=O)N(c1ccc(-n2cnnn2)c(C)c1)C(C(=O)NC1CCCC1)c1ccc(F)c(F)c1 (stereo not drawn) [Compound 22] | 2500 | 1500 | 320 | IC50 ([2]; Table 4, ovarian cancer panel): 330 nM
11 | C#CC(=O)N(c1cc(OC)c(OC)c(OC)c1)C(C(=O)NC1CCCC1)c1cccs1 (stereo not drawn) [Compound 27] | 420 | 2200 | 330 | 
12 | C#CC(=O)N(c1ccc(-n2cnnn2)c(C)c1)C(C(=O)NC1CCCC1)c1cccc(F)c1 (stereo not drawn) [Compound 23] | 250 | 1500 | 2000 | IC50 ([2]; Table 4, ovarian cancer panel): 720 nM
13 | C#CC(=O)N(CC(=O)NCC(=O)OCC)c1ccc(-n2cnnn2)c(C)c1 [Compound 44] | > 10000 | > 10000 | 6300 | 
14 | C#CC(=O)N(c1cc(OC)cc(OC)c1)C(C(=O)NC1CCCCC1)c1ccc(OC)c(O)c1 (stereo not drawn) [Compound 35] | 7500 | 2900 | 5500 | 
